From US8580728B2, “Use of fragrance compositions for the prevention of the development of indole base malodours from fecal and urine based soils” (Takasago International Corporation, priority 2006, dated 2013)

Assay: Decrease of fragrance compound concentration during the indole inhibition test (GCMS)
Type: physicochemical
Design: key: Y = Yes
Details: 24 hours in fresh human urine, room temperature; for Decrease in Fragrance Compounds after 24 hours (%): >60%: category >60% decrease; for Decrease in Fragrance Compounds after 24 hours (%): 0-30%: category 0-30% decrease
Procedure: Advantageously, the appropriate fragrance compounds may be selected by using the following preferred indole inhibition test which comprises the following steps: • A) 0.02 g of fragrance and 0.02 g of Tergitol 15-s-12 was added to 7 g of fresh human urine in a 20 ml Headspace vial sealed with a PTFE faced septum and well mixed for 10 minutes using a magnetic stirrer. For a blank to test the suitability of a batch of fresh human urine, 7 g of human urine was used with 0.02 g of demineralised water and 0.02 g of Tergitol 15-s-12. If a control was required, to test the efficacy of product base for example, the control contained 7 g of human urine to which was added 0.02 g of fragrance, minus the active agents and 0.02 g of Tergitol 15-s-12. • B) The vials are placed in an autosampler tray at room temperature. • C) At different times the headspace in the vials is sampled for 5 minutes at 35° C. by an SPME fibre (PDMS fibre ex Supelco) after 10 minutes at 35° C. (incubation time). • D) The SPME fibre is desorbed 1 minute at 265° C. from a CTC Combipal autosampler and injected in splitless mode onto an Agilent GC-MS 5973N with a HP-INNOWAX column (30 m×0.25×0.25). (Oven conditions: 50° C. during 2 min-to 250° C. at 10° C./min-250° C. during 5 minutes). • E) Under the above GC-MS conditions, indole has a retention time of 19.14 minutes, and can be recognised by its characteristic ions (m/z 117, m/z 89 and m/z 90). • F) In the range of values determined in this work, the area of the indole peak (117) is linearly related to the actual concentration in the vial, and was used without further correction to establish the concentration of indole in “Active” and “Blank” and if present any “Control” fragrances. • G) The material is deemed to be active if the indole concentration in the test sample is below 0.01 ppm (wt/wt) after 24 hours incubation at room temperature and the indole in the blank samples is between 0.25 ppm (wt/wt) and 1.25 ppm (wt/wt) indole after 24 hours storage at room temperature. • H) The change in the active ingredient concentration is determined by comparing measurements at the start of the experiment and after 24 hours using appropriate characteristic ions.
This can be determined by measuring the fragrance concentration in the sample containing the test cocktail at the start and end of the indole inhibition test as described in step I of the test. If the difference between the measurements is less than 60% preferably less than 30% then the material is considered as not to have changed sufficiently to alter the fragrance note and to be particularly preferred.
A sample of fresh human urine is divided into equal portions and a fragrance containing one or more of the effective materials was added as described in the Indole Inhibition Test. […] The samples were stored and after 24 hours the indole content and fragrance active content is measured by gas chromatography with mass spectrometric (GCMS) detection. Those formulations containing active ingredients prevented the formation of indole while both the unfragranced and the alcohol containing control samples had much greater quantities of indole present. Also for the active compounds a GCMS measurement indicated the extent to which the compound was itself consumed as part of the process. In table 2 the decrease in fragrance components has been classified into 3 categories and the letter Y indicates the appropriate category for the compounds which have been measured. The absence of a letter Y in any category means that the decrease has not been measured for that compound.

SMILES: CCc1occc(=O)c1O [Veltol Plus]
- Decrease in Fragrance Compounds after 24 hours (%): >60%: Y

SMILES: O=C/C=C/c1ccccc1 [Cinnamic aldehyde]
- Decrease in Fragrance Compounds after 24 hours (%): 0-30%: Y

SMILES: O=Cc1ccccc1 [Benzaldehyde]
- Decrease in Fragrance Compounds after 24 hours (%): 0-30%: Y

SMILES: CCCCCCCCCCC=O [Aldehyde C11]
- Decrease in Fragrance Compounds after 24 hours (%): >60%: Y

SMILES: CC(C)=CCCC(C)=CC=O [Citral]
- Decrease in Fragrance Compounds after 24 hours (%): 0-30%: Y

SMILES: C=C(C)C1CC=C(C=O)CC1 (stereo not shown) [Perilla aldehyde]
- Decrease in Fragrance Compounds after 24 hours (%): 0-30%: Y

SMILES: CCC/C=C/C=O [Trans 2 hexenal]
- Decrease in Fragrance Compounds after 24 hours (%): 0-60% (category 0-60% decrease): Y
